From patent EP4692083A1, “NOVEL AZABICYCLE DERIVATIVES AND PHARMACEUTICAL COMPOSITION FOR INHIBITING AUTOTAXIN, COMPRISING SAME” (Nextgen Bioscience Co., Ltd., priority 2023, dated 2024)

Molecular target: human Autotaxin protein (Homo sapiens, UniProt Q13822)
Test: Evaluation of the inhibitory activity against human Autotaxin protein (18:1 LysoPC substrate, choline assay kit, absorbance at 570 nm)
Format: biochemical
Conditions: at 500nM compound, 2 hours at 37 °C, read-out: Inhibition rate (%, at 500nM)
Experimental: Solutions of each synthesized compound (80 uM, 100% dimethyl sulfoxide) were sequentially diluted 5-fold with dimethyl sulfoxide to prepare 6 concentrations. Each concentration of the compound was diluted 2-fold with 1x test buffer (50 mM Tris-Cl (pH 8.0), 5 mM KCl, 1 mM CaCl2, 1 mM MgCl2, 140 mM NaCl, deionized water, 1 mg/mL BSA), and 1 uL (1.25% dimethylsulfoxide) of the diluted mixture was dispensed into each well of a 96-well clear round-bottom plate. 9 uL of 1x test buffer was added, and 20 uL of 240 nM human autotaxin protein (buffer: 50 mM Tris-HCl, pH 8.0, with 150 mM sodium chloride and 20% glycerol) was added. 10 uL of sonicated 360 uM 18:1 LysoPC (diluted with 1x assay buffer) was added. The reaction was performed for 2 hours in a shaking incubator at 37 °C, and a secondary reaction mixture (choline assay kit, KA1662) (65 uL of 1x assay buffer: 1 uL of choline oxidase: 1 uL of dye probe) was prepared. 60 uL of the secondary reaction mixture was added to the plate where the reaction was performed, and incubated for 30 minutes in a shaker. The absorbance value was measured at a wavelength of 570 nm using a SpectraMax iD3 microplate reader. The percentage inhibition activity value (% inhibition) was calculated by the formula: (1 - absorbance value test group / absorbance value control group) X 100.

| Compound | inhibition at 0.5 µM |
| --- | --- |
| FC(F)(F)c1ccc(CCNc2ncc(-c3nnc(N4C[C@@H]5[C@H](C4)[C@H]5c4cnn[nH]4)o3)cn2)cc1 [Example 26, 5-(5-((1R,5S,6r)-6-(1H-1,2,3-Triazol-5-yl)-3-azabicyclo[3.1.0]hexan-3-yl)-1,3,4-oxadiazol-2-yl)-N-(4-(trifluoromethyl)phenethyl)pyrimidin-2-amine] | 98.4% |
| Brc1ccc(CCNc2ncc(-c3nnc(N4C[C@@H]5[C@H](C4)[C@H]5c4cnn[nH]4)o3)cn2)cc1 [Example 27, 5-(5-((1R,58,6r)-6-(1H-1,2,3-Triazol-5-yl)-3-azabicyclo[3.1.0]hexan-3-yl)-1,3,4-oxadiazol-2-yl)-N-(4-bromophenethyl)pyrimidin-2-amine] | 98.6% |
| Clc1ccccc1CCNc1ncc(-c2nnc(N3C[C@@H]4[C@H](C3)[C@H]4c3cnn[nH]3)o2)cn1 [Example 28, 5-(5-((1R,5S,6r)-6-(1H-1,2,3-Triazol-5-yl)-3-azabicyclo[3.1.0]hexan-3-yl)-1,3,4-oxadiazol-2-yl)-N-(2-chlorophenethyl)pyrimidin-2-amine] | 96.4% |
| Clc1cc(Cl)cc(CCNc2ncc(-c3nnc(N4C[C@@H]5[C@H](C4)[C@H]5c4cnn[nH]4)o3)cn2)c1 [Example 29, 5-(5-((1R,5S,6r)-6-(1H-1,2,3-Triazol-5-yl)-3-azabicyclo[3.1.0]hexan-3-yl)-1,3,4-oxadiazol-2-yl)-N-(3,5-dichlorophenethyl)pyrimidin-2-amine] | 97% |
| COc1ccc(CCNc2ncc(-c3nnc(N4C[C@@H]5[C@H](C4)[C@H]5c4cnn[nH]4)o3)cn2)cc1 [Example 30, 5-(5-((1R,5S,6r)-6-(1H-1,2,3-Triazol-5-yl)-3-azabicyclo[3.1.0]hexan-3-yl)-1,3,4-oxadiazol-2-yl)-N-(4-methoxyphenethyl)pyrimidin-2-amine] | 95.7% |
| Cc1ccc(CCNc2ncc(-c3nnc(N4C[C@@H]5[C@H](C4)[C@H]5c4cnn[nH]4)o3)cn2)cc1 [Example 31, 5-(5-((1R,5S,6r)-6-(1H-1,2,3-Triazol-5-yl)-3-azabicyclo[3.1.0]hexan-3-yl)-1,3,4-oxadiazol-2-yl)-N-(4-methylphenethyl)pyrimidin-2-amine] | 97% |
| c1ccc(CCNc2ncc(-c3nnc(N4C[C@@H]5[C@H](C4)[C@H]5c4cnn[nH]4)o3)cn2)nc1 [Example 32, 5-(5-((1R,5S,6r)-6-(1H-1,2,3-Triazol-5-yl)-3-azabicyclo[3.1.0]hexan-3-yl)-1,3,4-oxadiazol-2-yl)-N-(2-(pyridin-2-yl)ethyl)pyrimidin-2-amine] | 48.7% |
| N#Cc1ccc(CCNc2ncc(-c3nnc(N4C[C@@H]5[C@H](C4)[C@H]5c4cnn[nH]4)o3)cn2)cc1 [Example 33, 4-(2-((5-(5-((1R,5S,6r)-6-(1H-1,2,3-Triazol-5-yl)-3-azabicyclo[3.1.0]hexan-3-yl)-1,3,4-oxadiazol-2-yl)pyrimidin-2-yl)amino)ethyl)benzonitrile] | 93.7% |
| c1ccc2c(c1)CC[C@H]2Nc1ncc(-c2nnc(N3C[C@@H]4[C@H](C3)[C@H]4c3cnn[nH]3)o2)cn1 [Example 34, 5-(5-((1R,5S,6R)-6-(1H-1,2,3-Triazol-5-yl)-3-azabicyclo[3.1.0]hexan-3-yl)-1,3,4-oxadiazol-2-yl)-N-((R)-2,3-dihydro-1H-inden-1-yl)pyrimidin-2-amine] | 90.8% |
| c1ccc2c(c1)CC[C@@H]2Nc1ncc(-c2nnc(N3C[C@@H]4[C@H](C3)[C@H]4c3cnn[nH]3)o2)cn1 [Example 35, 5-(5-((1R,5S,6S)-6-(1H-1,2,3-Triazol-5-yl)-3-azabicyclo[3.1.0]hexan-3-yl)-1,3,4-oxadiazol-2-yl)-N-((S)-2,3-dihydro-1H-inden-1-yl)pyrimidin-2-amine] | 96.8% |
| c1ccc(Nc2ncc(-c3nnc(N4C[C@@H]5[C@H](C4)[C@H]5c4cnn[nH]4)o3)cn2)cc1 [Example 36, 5-(5-((1R,5S,6r)-6-(1H-1,2,3-Triazol-5-yl)-3-azabicyclo[3.1.0]hexan-3-yl)-1,3,4-oxadiazol-2-yl)-N-phenylpyrimidin-2-amine] | 65.2% |
| CN(CCc1ccc(Cl)cc1)c1ncc(-c2nnc(N3C[C@@H]4[C@H](C3)[C@H]4c3cnn[nH]3)o2)cn1 [Example 37, 5-(5-((1R,5S,6r)-6-(1H-1,2,3-Triazol-5-yl)-3-azabicyclo[3.1.0]hexan-3-yl)-1,3,4-oxadiazol-2-yl)-N-(4-chlorophenethyl)-N-methylpyrimidin-2-amine] | 91.7% |
| O=C(CCCc1nnc(NC2Cc3ccccc3C2)s1)N1C[C@@H]2[C@H](C1)[C@H]2c1cnn[nH]1 [Example 38, 1-((1R,5S,6r)-6-(1H-1,2,3-Triazol-5-yl)-3-azabicyclo[3.1.0]hexan-3-yl)-4-(5-((2,3-dihydro-1H-inden-2-yl)amino)-1,3,4-thiadiazol-2-yl)butan-1-one] | 25.5% |
| O=C(CCc1nnc(NC2Cc3ccccc3C2)s1)N1C[C@@H]2[C@H](C1)[C@H]2c1cnn[nH]1 [Example 39, 1-((1R,5S,6r)-6-(1H-1,2,3-Triazol-5-yl)-3-azabicyclo[3.1.0]hexan-3-yl)-3-(5-((2,3-dihydro-1H-inden-2-yl)amino)-1,3,4-thiadiazol-2-yl)propan-1-one] | 59.7% |
| Cc1nc(NCCc2ccc(Cl)cc2)ncc1-c1nnc(N2C[C@@H]3[C@H](C2)[C@H]3c2cnn[nH]2)o1 [Example 40, 5-(5-((1R,5S,6r)-6-(1H-1,2,3-Triazol-5-yl)-3-azabicyclo[3.1.0]hexan-3-yl)-1,3,4-oxadiazol-2-yl)-N-(4-chlorophenethyl)-4-methylpyrimidin-2-amine] | 92.3% |
| Clc1ccc(CCNc2ccc(-c3nnc(N4C[C@@H]5[C@H](C4)[C@H]5c4cnn[nH]4)o3)cn2)cc1 [Example 41, 5-(5-((1R,5S,6r)-6-(1H-1,2,3-Triazol-5-yl)-3-azabicyclo[3.1.0]hexan-3-yl)-1,3,4-oxadiazol-2-yl)-N-(4-chlorophenethyl)pyridin-2-amine] | 95.8% |
| Clc1ccc(CCNc2cnc(-c3nnc(N4C[C@@H]5[C@H](C4)[C@H]5c4cnn[nH]4)o3)cn2)cc1 [Example 42, 5-(5-((1R,5S,6r)-6-(1H-1,2,3-Triazol-5-yl)-3-azabicyclo[3.1.0]hexan-3-yl)-1,3,4-oxadiazol-2-yl)-N-(4-chlorophenethyl)pyrazin-2-amine] | 68.4% |
| O=C(CCc1cnc(NCCc2ccc(Cl)cc2)nc1)N1C[C@@H]2[C@H](C1)[C@H]2c1cnn[nH]1 [Example 43, 1-((1R,5S,6r)-6-(1H-1,2,3-Triazol-5-yl)-3-azabicyclo[3.1.0]hexan-3-yl)-3-(2-((4-chlorophenethyl)amino)pyrimidin-5-yl)propan-1-one] | 84.8% |
| O=C(CCCc1cnc(NCc2cc(Cl)cc(Cl)c2)nc1)N1C[C@@H]2[C@H](C1)[C@H]2c1cnn[nH]1 [Example 44, 1-((1R,5S,6r)-6-(1H-1,2,3-Triazol-5-yl)-3-azabicyclo[3.1.0]hexan-3-yl)-4-(2-((3,5-dichlorobenzyl)amino)pyrimidin-5-yl)butan-1-one] | 58.6% |
| O=C(/C=C/c1cnc(NCCc2ccc(Cl)cc2)nc1)N1C[C@@H]2[C@H](C1)[C@H]2c1cnn[nH]1 [Example 45, (E)-1-((1R,5S,6r)-6-(1H-1,2,3-Triazol-5-yl)-3-azabicyclo[3.1.0]hexan-3-yl)-3-(2-((4-chlorophenethyl)amino)pyrimidin-5-yl)prop-2-en-1-one] | 98.7% |
| O=C(/C=C/c1cnc(NC2Cc3ccccc3C2)nc1)N1C[C@@H]2[C@H](C1)[C@H]2c1cnn[nH]1 [Example 46, (E)-1-((1R,5S,6r)-6-(1H-1,2,3-Triazol-5-yl)-3-azabicyclo[3.1.0]hexan-3-yl)-3-(2-((2,3-dihydro-1H-inden-2-yl)amino)pyrimidin-5-yl)prop-2-en-1-one] | 99.4% |
| Cn1nncc1[C@H]1[C@@H]2CN(c3nnc(-c4cnc(NCCc5ccc(Cl)cc5)nc4)o3)C[C@@H]21 [Example 47, N-(4-Chlorophenethyl)-5-(5-((1R,5S,6r)-6-(1-methyl-1H-1,2,3-triazol-5-yl)-3-azabicyclo[3.1.0]hexan-3-yl)-1,3,4-oxadiazol-2-yl)pyrimidin-2-amine] | 13.9% |
| Cc1nn[nH]c1[C@H]1[C@@H]2CN(c3nnc(-c4cnc(NCCc5ccc(Cl)cc5)nc4)o3)C[C@@H]21 [Example 48, N-(4-Chlorophenethyl)-5-(5-((1R,5S,6r)-6-(4-methyl-1H-1,2,3-triazol-5-yl)-3-azabicyclo[3.1.0]hexan-3-yl)-1,3,4-oxadiazol-2-yl)pyrimidin-2-amine] | 34.7% |
| Clc1ccc(CCNc2ncc(C3CC(N4C[C@@H]5[C@H](C4)[C@H]5c4cnn[nH]4)=NO3)cn2)cc1 (stereo partly drawn) [Example 49, 5-(3-((1R,5S,6r)-6-(1H-1,2,3-Triazol-5-yl)-3-azabicyclo[3.1.0]hexan-3-yl)-4,5-dihydroisoxazol-5-yl)-N-(4-chlorophenethyl)pyrimidin-2-amine] | 76.4% |
| c1ccc2c(c1)CC(Nc1ncc(C3CC(N4C[C@@H]5[C@H](C4)[C@H]5c4cnn[nH]4)=NO3)cn1)C2 (stereo partly drawn) [Example 50, 5-(3-((1R,5S,6r)-6-(1H-1,2,3-Triazol-5-yl)-3-azabicyclo[3.1.0]hexan-3-yl)-4,5-dihydroisoxazol-5-yl)-N-(2,3-dihydro-1H-inden-2-yl)pyrimidin-2-amine] | 95.5% |
